{
  "source": "patent US20200129412A1",
  "about": "“SILICONE PAD HAVING ACTIVE INGREDIENTS FOR SKIN CARE AND AGAINST SKIN AGING” (Apricot GmbH, priority 2017, published 2020)",
  "tested_on": "skin of a subject",
  "experiment": "Drug absorption study: diffusion of stained hyaluron from silicone pad into the skin",
  "type": "in vivo",
  "conditions": "6 mg powdered hyaluron stained green in adhesive layer; 2 weeks of daily use on skin",
  "description": "FIG. 3A depicts a silicone pad with an adhesive layer. The adhesive layer comprises 6 mg of powdered hyaluron (<20 T Dalton). […] For manufacturing a silicone pad, the adhesive layer was bonded to a silicone body. The silicone pad was applied daily to the skin of a subject for a period of 2 weeks.",
  "data": [
    {"substance": "hyaluron", "values": [
      {"measurement": "concentration of hyaluron in the silicone pad after use (decrease of color)", "value": "decreases markedly"},
      {"measurement": "distribution of hyaluron from the pad", "value": "delivered to the skin's lower layers"}
    ]}
  ]
}
